According to publication PMC10039358, “The 8-bromobaicalein inhibited the replication of dengue, and Zika viruses and targeted the dengue polymerase” (Scientific Reports, 2023):

Key:
[1] = Cytotoxicity (CC50), MTS assay; details: human
Excerpt: (§1) LLC/MK2 (ATCC® CCL-7), HEK-293 (ATCC® CRL-1573), HepG2 (ATCC® HB-8065), THP-1 (ATCC® TIB-202), Huh-7, RD (ATCC® CCL-136™), and C6/36 (ATCC® CRL-1660) cell lines were propagated and maintained as previously described[16],[21],[40],[53]. Reference DENV1 (16007), DENV2 (NGC, 16681), DENV3 (16562), DENV4 (1036), ZIKV (SV0127/14), and EV-A71 (BRCR) were propagated in Vero, C6/36, and R.D. cells as described[16],[21] Phumee et al.[53]. Cytotoxic concentration (CC50) of LLC/MK2, THP-1, HEK-293, HepG2, Huh-7, and R.D. cells were analyzed as previously described. […] Briefly, cells were seeded overnight and infected with each virus at the multiplicity of infection (M.O.I.) of 0.1 for 1 h. The compound was added during and after infection, and cells were incubated for 72 h. Supernatants were collected for 96-well[55] or a traditional 24-well plaque titration.
(§2) Supplementary Fig. S2. […] Briefly, cells were seeded overnight before the compound addition.

[2] = Cytotoxicity (CC50), MTS assay; details: human; remark: listed apart in the source
Excerpt: as §1, §2

[3] = test system: ZIKV (SV0127/14); assay: Antiviral efficacy (EC50), plaque titration; type: cell-based; details: for EC50: Zika virus, ZIKV (SV0127/14), LLC/MK2 cells, M.O.I. 0.1, 72 h
Excerpt: as §1

[4] = test system: DENV4 (1036); assay: Antiviral efficacy (EC50), plaque titration; type: cell-based; details: for EC50: LLC-MK2, 72 h
Excerpt: as §1

[5] = test system: DENV1 (16008); assay: Antiviral efficacy (EC50), plaque titration; type: cell-based; details: for EC50: LLC-MK2, 72 h
Excerpt: as §1

[6] = test system: EV-A71 (BRCR); assay: Antiviral efficacy (EC50), plaque titration; type: cell-based
Excerpt: as §1

[7] = test system: DENV3 (16562); assay: Antiviral efficacy (EC50), plaque titration; type: cell-based; details: for EC50: LLC-MK2, 72 h
Excerpt: as §1

[8] = test system: DENV2 (NGC); assay: Antiviral efficacy (EC50), plaque titration; type: cell-based; details: for EC50: Dengue virus, DENV2, LLC-MK2, 72 h
Excerpt: as §1

[9] = target: T1, DENV-2 MTase (Dengue virus type 2, UniProt P14340); assay: MTase-Glo methyltransferase assay; type: biochemical; details: 100 µM compound
T1 construct: N-terminally Histidine-tagged DENV-2 MTase (NHis-MTase) synthesized according to previous description; His-tag (N)
Procedure: The production of DENV2 MTase was performed according to a described protocol. In brief, N-terminally Histidine-tagged DENV-2 MTase (NHis-MTase) synthesized according to previous description[30] (GenScript; Piscataway, NJ, USA) was expressed with 100 µM IPTG (isopropyl-b-D-thiogalactopyranoside) induction, at 27 °C for 16 h. Cell disruption and clarification were sequentially done via sonication and centrifugation at 12,000 rpm for 30 min at 4 °C. His-tagged […] was purified by immobilized metal affinity chromatography (IMAC; Cytiva, Marlborough, MA, USA) with 500 mM imidazole elution. The eluate was dialyzed against 2 L of 50 mM Tris, pH 7.5, 50 mM NaCl, 1 mM MgCl2, 40% glycerol, and 1 mM DTT at 4 °C overnight. The purified enzyme was verified by Coomassie staining and methyltransferase activity.
The MTase assay for inhibition testing was adapted from the previous publications. The MTase assay for inhibition testing was performed using MTase-Glo™ Methyltransferase Assay according to the manufacturer’s protocol (Promega, Madison, Wisconsin, USA). Each reaction was performed in 50 µl reaction using the MTase from DENV-2. […] The luminescence was measured using VICTORTM X3 2030 Multilabel Reader (Perkin Elmer, Waltham, MA, USA). The percent enzyme activity was calculated from two independent experiments by using PRISM version 9 (GraphPad Software, La Jolla, CA, USA).

[10] = test system: DENV3; assay: Time-of-addition, viral RNA by RT-qPCR; type: cell-based; details: 10 µM added 1, 6, and 12 h after infection, LLC/MK2, M.O.I. 1
Procedure: (§3) The protocol was adapted from a previous description. Briefly, LLC/MK2 cells (5 × 10^4) were seeded in a 24-well plate and incubated as described. Cells were infected with DENV2 NGC, unless otherwise indicated, at the M.O.I. of 0.1 before adding the compound at designated concentrations. DMSO at 1% was used as no inhibition control. Supernatants were collected to determined viral titers by plaque titration assay or RT-qPCR.
(§4) Supplementary Fig. S8. The time-of-addition of 8-bromobaicalein against DENV3-, and ZIKV-infected LLC/MK2 cells. Briefly, the 10 µM 8-bromobaicalein was added to the virus-infected cells (M.O.I. of 1) at 1, 6, 12, 24, and 48 h post-infection. Supernatants were collected at 48 h after infection for analysis by RT-qPCR. Results were reported as percent inhibition from DMSO-treated cells.

[11] = test system: ZIKV; assay: Time-of-addition, viral RNA by RT-qPCR; type: cell-based; details: 10 µM added 1, 6, and 12 h after infection, LLC/MK2, M.O.I. 1
Procedure: as §3, §4

[12] = test system: DENV2 NGC; assay: Cell-based time-of-addition study, plaque assay; details: 2, 5 or 10 µM, added within 12 h after infection, LLC/MK2, harvested 72 h
Procedure: Figure 5 A scheme and DENV2 titers (pfu/ml) in LLC/MK2 cells of time-of-drug addition study. Briefly, the 2, 5, and 10 µM 8-bromobaicalein was added into DENV2-infected cells (M.O.I. of 0.1) at various time points. All supermatants were harvested at 72 h and quantified by plaque assay. Errors indicated the standard deviation of three biological replicates.
as §3

[13] = test system: various cell lines; assay: Cytotoxicities in various cell lines, summary; type: cell-based; details: 100 µM, most cells
Procedure: as §2

[14] = test system: chikungunya virus (CHIKV); assay: Antiviral efficacy (EC50) against chikungunya virus; type: cell-based; details: LLC-MK2
[15] = test system: C57BL/6 mice; assay: Animal toxicity, 7 days intraperitoneal
Procedure: (A) ALT and (B) Cr levels in infant mice and (C) ALT and (D) Cr levels in adult mice taken at the 8th day after seven consecutive days of 10 mg/kg 8-bromobaicalein, once daily, intraperitoneal administration. Plasma samples were collected for analysis of hepatorenal functions. Each data point represented the ALT or Cr levels of each individual. Error bars indicated the standard deviation of the means.
All methods were carried out in accordance with relevant guidelines and regulations. All experimental protocols were approved by the Institutional Animal Care and Use Committee of the Faculty of Medicine, Chulalongkorn University, Bangkok, Thailand (certificate number: 027/2562), based on the National Institutes of Health, U.S.A.'s criteria for the use and treatment of laboratory animals and by the National University of Singapore (protocol number: R20-0073). All methods are reported in accordance with ARRIVE guidelines (https://arriveguidelines.org) for the reporting of animal experiments. The 8-bromobaicalein was daily administered at 10 mg/kg via intraperitoneal injection for 7 days (n = 6) to determine the drug safety. The control group (n = 6) was injected with the vehicle (5% DMSO, 33.25% polyethylene glycol (PEG.)-400, 1.90% ethanol, and 59.85% distilled water). All mice were weighed daily and monitored for clinical signs using a clinical scoring system. Blood samples were collected via submandibular and cardiac puncture at the 8th day after the first compound administration for alanine transaminase (EnzyChrom, EALT-100, BioAssay, Hayward, CA, USA), and serum creatinine (QuantiChromTM, DICT-500, BioAssay, Hayward, CA, USA) as markers of hepatotoxicity and nephrotoxicity, respectively.

[16] = Cytotoxicity (CC50), MTS assay; details: human; remark: listed apart in the source
Excerpt: as §1, §2

[17] = Cytotoxicity (CC50), MTS assay; details: human; remark: listed apart in the source
Excerpt: as §1, §2

[18] = Cytotoxicity (CC50), MTS assay
Excerpt: as §1, §2

[19] = test system: DENV1-4, and ZIKV; assay: Antiviral efficacy, summary over dengue serotypes and Zika; type: cell-based
[20] = target: T2, DENV2 NS5/RdRp (Dengue virus type 2, UniProt P29990); assay: In vitro RdRp assay (SYTO-9 fluorescence); type: biochemical, DENV-2
T2 construct: The 73.2 kDa of non-tagged NS5/RdRp was successfully purified by size exclusion chromatography; His-tag (N, cleaved yes); made in house
Procedure: The production of DENV2 RdRp was performed according to a described protocol. In brief, N-terminally Histidine-tagged DENV2 RdRp (NHis-RdRp) was expressed with 200 µM IPTG (isopropyl-b-D-thiogalactopyranoside) induction, at 37 °C for 4 h. Cell disruption and clarification were sequentially done via sonication and centrifugation at 15,000 rpm for 1 h at 4 °C. His-tagged RdRp was purified by immobilized metal affinity chromatography (IMAC) with 175 mM imidazole elution. His-tag was removed by adding 2 units thrombin per 1 mg protein during dialysis for 2 days at 4 °C. The non-tagged RdRp was further purified by size exclusion chromatography. […]
The RdRp assay for inhibition testing was adapted from the previous publications[46],[71]. […] The nascent double-stranded RNA was quantitated by mixing 10 µl of the reaction mixture with 10 µl of 5 µM SYTO-9 dye in Tris–EDTA buffer and incubating at room temperature for 5 min. Fluorescence was measured at excitation and emission wavelengths of 485 nm and 520 nm, respectively, by using EnSight Multimode Plate Reader (Perkin Elmer, Waltham, MA, USA). The IC50 value was calculated from three independent experiments by using PRISM version 9 (GraphPad Software, Inc., La Jolla, CA, USA).

[21] = test system: HaCat cells; details: cited from earlier work
[22] = test system: Vero; details: cited from earlier work
[23] = test system: A549; details: cited from earlier work
[24] = test system: dengue, Zika, and Japanese encephalitis viruses; details: depending the assay and detection systems ref 32, 47, 48; cited from earlier work
[25] = 8th day after first injection, 10 mg/kg i.p., infant and adult

T1 sequence (P14340 2493-2755): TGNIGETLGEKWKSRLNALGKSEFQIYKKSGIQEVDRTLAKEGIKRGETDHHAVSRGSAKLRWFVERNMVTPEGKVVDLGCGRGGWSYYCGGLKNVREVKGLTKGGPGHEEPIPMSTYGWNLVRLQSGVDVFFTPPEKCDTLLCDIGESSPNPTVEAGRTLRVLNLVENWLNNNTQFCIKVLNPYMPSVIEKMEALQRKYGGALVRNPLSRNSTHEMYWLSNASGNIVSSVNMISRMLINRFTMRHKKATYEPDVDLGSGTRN

With `O=c1cc(-c2ccccc2)oc2c(Br)c(O)c(O)c(O)c12` [8-bromobaicalein] the CC50 at 48 h [1] was 97900 ± 7060 nM, the CC50 at 48 h [2] was greater than 100000 nM and the “Selectivity index (SI)” value ([3]; ZIKV, CC50/EC50 in LLC/MK2) was greater than 347.2222. For the same compound, the EC50 [3] was 720 ± 200 nM, the “Selectivity index (SI)” value ([4]; DENV4, CC50/EC50 in LLC/MK2) was greater than 312.5 and the EC50 [4] was 800 ± 150 nM. The “Selectivity index (SI)” value ([5]; DENV1, CC50/EC50 in LLC/MK2) was greater than 378.7879, the EC50 [5] was 660 ± 50 nM and the EC50 ([6]; Enterovirus A, EVA71, EV-A71 (BRCR), table title LLC/MK2 cells, methods R.D. cells) was greater than 25000 nM. The “Inhibition of enterovirus-A71” value ([6]; nonenveloped enterovirus-A71) was “did not inhibit”, the “Selectivity index (SI)” value ([7]; DENV3, CC50/EC50 in LLC/MK2) was greater than 312.5 and the EC50 [7] was 800 ± 80 nM. For the same compound, the “Selectivity index (SI)” value ([8]; DENV2, CC50/EC50 in LLC/MK2) was greater than 284.0909, the EC50 [8] was 880 ± 140 nM and the inhibition at 100 µM [9] was less than 50%. For the same compound, the “Inhibition of DENV3 RNA” value [10] was “inhibited”, the “Inhibition of ZIKV RNA” value [11] was “inhibited” and the “Inhibition of virion progeny” value [12] was 1–2.5 log concentrations (pfu/mL). For the same compound, the Cytotoxicity to cells [13] was “not toxic”, the EC50 [14] was 490 ± 110 nM and the Clinical scorings ([15]; 10 mg/kg i.p. once daily, 7 days) was “within normal range”. For the same compound, the “General health of mice” value ([15]; 10 mg/kg i.p. once daily, 7 days, infant and adult mice) was “healthy throughout the experiments”, the “Alanine transaminase (ALT) level, treated vs control” value [15, 25] was “insignificantly different” and the “Plasma creatinine (Cr) level, treated vs control” value [15, 25] was “insignificantly different”. For the same compound, the “ALT in adult cohort” value ([15]; adult mice, 10 mg/kg i.p., 7 days) was “slight ALT increase”, the CC50 at 48 h [16] was greater than 100000 nM and the CC50 at 48 h [17] was greater than 100000 nM. The CC50 at 48 h ([18]; human) was greater than 100000 nM, the CC50 at 48 h ([18]; rhesus monkey) was greater than 250000 nM and the “Selectivity index (SI) in dengue and Zika viruses” value ([19]; LLC/MK2) was “about 300”. For the same compound, the EC50 ([19]; Zika virus, DENV1, read-out: EC50s against DENV1-4 and ZIKV) was 660 to 880 nM and the IC50 [20] was 34900 nM.
`O=c1cc(-c2ccccc2)oc2cc(O)c(O)c(O)c12` [baicalein, 5,6,7-trihydroxyflavone] showed an EC50 [3] of 1580 ± 420 nM, an EC50 [4] of 930 ± 130 nM and an EC50 [5] of 1400 ± 380 nM. The EC50 [7] was 1190 ± 660 nM, the EC50 [8] was 4040 ± 1370 nM and the CC50 [21] was greater than 200000 nM. The CC50 [22] was greater than 100000 nM, the CC50 [23] was greater than 50000 nM and the EC50 [24] was 4 to 24000 nM. For the same compound, the CC50 at 48 h ([18]; rhesus monkey) was greater than 250000 nM and the IC50 [20] was 242000 nM.
